{"source": "paper PMC7693160", "about": "(Pharmaceutics, 2020)", "key": {"physchem": {"experiment": "physchem", "assay_type": "physicochemical", "description": "An experimental estimate of FLU pKa was obtained by fitting the Henderson–Hasselbalch equation (Equation (1)) to the mean aqueous equilibrium solubility (Si) values using the SIVA Toolkit version 3.0 (SIVA 3; Certara, Simcyp Division; Sheffield, UK). The lowest reported value in buffers was assumed to represent the intrinsic solubility (S0) . The pKa was then compared with values available in the literature to confirm the validity of the aqueous solubility parameter estimates. (1) Si=S0·10 ^pH−pKa The impact of bile salt concentration BS and subsequent formation of micelles on the solubility of FLU was investigated. […] Estimates of the logarithm of the micelle-water partition coefficient for the neutral Km:w,unionized and ionized drug Km:w,ionized were obtained to quantify the micelle-mediated solubility. […] Estimation of the relevant parameters was performed using the Nelder–Mead algorithm with weighting by the reciprocal of the predicted values. All estimates based on the in vitro solubility data were used as in silico input parameters for the development of the physiologically based pharmacokinetic (PBPK) model."}, "UGT1A9": {"system": "UGT1A9", "conditions": "Recombinant UGT; cited from earlier work"}, "CYP2C9": {"system": "CYP2C9", "conditions": "cited from earlier work"}, "[1]": {"conditions": "FLU po 50 mg s.d. + fluconazole po 200 mg q.d. x7, interval 2 h, CYP2C9 1*/1*, median"}, "[2]": {"conditions": "FLU po 50 mg s.d. + fluconazole po 200 mg q.d. x7, interval 2 h, CYP2C9 1*/3*"}, "[3]": {"conditions": "FLU po 50 mg s.d. + fluconazole po 200 mg q.d. x7, interval 2 h, CYP2C9 3*/3*, individual values (n=2)"}, "[4]": {"conditions": "FLU po 50 mg s.d. + fluconazole po 400 mg q.d. x7, interval 2 h, CYP2C9 1*/1*"}, "[5]": {"conditions": "FLU po 50 mg s.d. + fluconazole po 400 mg q.d. x7, interval 2 h, CYP2C9 1*/3*"}, "[6]": {"conditions": "FLU po 50 mg s.d. + fluconazole po 400 mg q.d. x7, interval 2 h, CYP2C9 3*/3*, individual values (n=2)"}, "[7]": {"conditions": "FLU po 50 mg s.d. + fluconazole po 400 mg q.d. x7, interval 2 h"}, "[8]": {"conditions": "FLU po 50 mg s.d. + fluconazole po 400 mg s.d., interval 2 h, ref 47"}, "[9]": {"conditions": "FLU po 50 mg s.d. + fluconazole po 400 mg s.d., interval 2 h, ref 48"}, "[10]": {"conditions": "FLU po 50 mg s.d. + rifampicin po 600 mg q.d. x5, interval 0 h, ref Daali et al."}, "[11]": {"conditions": "FLU po 100 mg s.d. + fluconazole po 200 mg b.i.d. x2, interval 0.5 h, geometric mean, ref 44"}, "[12]": {"conditions": "FLU po 100 mg s.d. + fluconazole po 200 mg b.i.d. x2, interval 0.5 h, geometric mean, ref 45"}, "[13]": {"conditions": "FLU po 100 mg s.d. + fluconazole po 200 mg b.i.d. x2, interval 0.5 h, ref 46"}}, "note": "Where “and” joins values, the source holds several entries; their conditions need not be identical. Equal entries are not always repeated. Where two headings read alike, the source gives them in different places. Marks after values point to notes of the source that are not given here."}
{"compound": "CC(C(=O)O)c1ccc(-c2ccccc2)c(F)c1", "note": "(stereo not drawn) [flurbiprofen]", "values": [{"measurement": "pKa", "setting": "physchem", "value": 4.05}, {"measurement": "Km", "setting": "UGT1A9", "value": 182, "unit": "µM"}, {"measurement": "UGT1A9-Vmax", "setting": "UGT1A9", "value": 3.286, "unit": "pmol/min/mg protein"}, {"measurement": "DDI AUC Ratio obs", "setting": "CYP2C9; [1]", "value": "2.02 ^a"}, {"measurement": "DDI CL/F Ratio obs", "setting": "CYP2C9; [1]", "value": "0.5 ^a"}, {"measurement": "DDI Cmax Ratio obs", "setting": "CYP2C9; [1]", "value": "1.03 ^a"}, {"measurement": "DDI AUC Ratio obs", "setting": "CYP2C9; [2]", "value": 1.8}, {"measurement": "DDI CL/F Ratio obs", "setting": "CYP2C9; [2]", "value": 0.56}, {"measurement": "DDI Cmax Ratio obs", "setting": "CYP2C9; [2]", "value": 0.87}, {"measurement": "DDI AUC Ratio obs", "setting": "CYP2C9; [3]", "value": "1.58 and 1.28"}, {"measurement": "DDI CL/F Ratio obs", "setting": "CYP2C9; [3]", "value": "0.75 and 0.66"}, {"measurement": "DDI Cmax Ratio obs", "setting": "CYP2C9; [3]", "value": "1.08 and 0.91"}, {"measurement": "DDI AUC Ratio obs", "setting": "CYP2C9; [4]", "value": 3.03}, {"measurement": "DDI CL/F Ratio obs", "setting": "CYP2C9; [4]", "value": 0.31}, {"measurement": "DDI Cmax Ratio obs", "setting": "CYP2C9; [4]", "value": 0.99}, {"measurement": "DDI AUC Ratio obs", "setting": "CYP2C9; [5]", "value": 2.48}, {"measurement": "DDI CL/F Ratio obs", "setting": "CYP2C9; [5]", "value": 0.44}, {"measurement": "DDI Cmax Ratio obs", "setting": "CYP2C9; [5]", "value": 0.94}, {"measurement": "DDI AUC Ratio obs", "setting": "CYP2C9; [6]", "value": "1.39 and 1.12"}, {"measurement": "DDI CL/F Ratio obs", "setting": "CYP2C9; [6]", "value": "1.00 and 0.66"}, {"measurement": "DDI Cmax Ratio obs", "setting": "CYP2C9; [6]", "value": "0.54 and 0.90"}, {"measurement": "DDI AUC Ratio obs", "setting": "CYP2C9; [7]", "value": 2.81}, {"measurement": "DDI CL/F Ratio obs", "setting": "CYP2C9; [7]", "value": 0.35}, {"measurement": "DDI Cmax Ratio obs", "setting": "CYP2C9; [7]", "value": 1.37}, {"measurement": "DDI AUC Ratio obs", "setting": "CYP2C9; [8]", "value": 2.16}, {"measurement": "DDI CL/F Ratio obs", "setting": "CYP2C9; [8]", "value": 0.46}, {"measurement": "DDI Cmax Ratio obs", "setting": "CYP2C9; [8]", "value": 1.24}, {"measurement": "DDI AUC Ratio obs", "setting": "CYP2C9; [9]", "value": 1.21}, {"measurement": "DDI CL/F Ratio obs", "setting": "CYP2C9; [9]", "value": 0.67}, {"measurement": "DDI Cmax Ratio obs", "setting": "CYP2C9; [9]", "value": 1.14}, {"measurement": "DDI AUC Ratio obs", "setting": "CYP2C9; [10]", "value": 0.56}, {"measurement": "DDI CL/F Ratio obs", "setting": "CYP2C9; [10]", "value": 1.85}, {"measurement": "DDI Cmax Ratio obs", "setting": "CYP2C9; [10]", "value": 0.71}, {"measurement": "DDI AUC Ratio obs", "setting": "CYP2C9; [11]", "value": "1.97 ^b"}, {"measurement": "DDI Cmax Ratio obs", "setting": "CYP2C9; [11]", "value": "1.47 ^b"}, {"measurement": "DDI AUC Ratio obs", "setting": "CYP2C9; [12]", "value": "1.71 ^b"}, {"measurement": "DDI Cmax Ratio obs", "setting": "CYP2C9; [12]", "value": "1.16 ^b"}, {"measurement": "DDI CL/F Ratio obs", "setting": "CYP2C9; FLU po 100 mg s.d. + fluconazole po 200 mg b.i.d. x2, interval 0.5 h, ref 44", "value": 0.5}, {"measurement": "DDI CL/F Ratio obs", "setting": "CYP2C9; FLU po 100 mg s.d. + fluconazole po 200 mg b.i.d. x2, interval 0.5 h, ref 45", "value": 0.57}, {"measurement": "DDI AUC Ratio obs", "setting": "CYP2C9; [13]", "value": 1.81}, {"measurement": "DDI CL/F Ratio obs", "setting": "CYP2C9; [13]", "value": 0.55}, {"measurement": "DDI Cmax Ratio obs", "setting": "CYP2C9; [13]", "value": 1.23}]}
